Measurements published in PMC8545574, “Antioxidant, Anti-Inflammatory, and Antidiabetic Activities of Bioactive Compounds from the Fruits of Livistona chinensis Based on Network Pharmacology Prediction” (Oxidative Medicine and Cellular Longevity, 2021).
≈ marks a conversion by molar mass, not a printed value. Where “and” joins values, the source holds several entries; their conditions need not be identical. Equal values may be shown once. Read-outs that look alike come from different tables or passages of the source.

Columns and labels:
[1] = biological target: α-Glucosidase (from Baker's yeast); assay: α-Glucosidase inhibitory assay (p-NPG substrate); details: read-out: IC50 α-Glucosidase inhibitory effect; mean ± SD, n = 3
Method: The extract, fractions, and compounds were dissolved in 5% DMSO and then diluted with phosphate buffer. Briefly, 80 μL PBS, 20 μL of varying concentrations of sample solutions, and 20 μL α-glucosidase solution (1.3 U/mL) were mixed and incubated in 96-well plates at 37°C for 5 min. The reaction started when 20 μL p-nitrophenyl-α-D-glucopyranoside (2.5 mM) was added to the plate. The reaction mixture was incubated for 15 min at 37°C, and then, 80 μL Na2CO3 (0.2 M) was added to stop the reaction.

PTP1B = biological target: T1, PTP1B (Homo sapiens, UniProt P18031); assay: PTP1B inhibitory assay (p-NPP substrate)
T1 sequence (P18031 1-321 limits assumed): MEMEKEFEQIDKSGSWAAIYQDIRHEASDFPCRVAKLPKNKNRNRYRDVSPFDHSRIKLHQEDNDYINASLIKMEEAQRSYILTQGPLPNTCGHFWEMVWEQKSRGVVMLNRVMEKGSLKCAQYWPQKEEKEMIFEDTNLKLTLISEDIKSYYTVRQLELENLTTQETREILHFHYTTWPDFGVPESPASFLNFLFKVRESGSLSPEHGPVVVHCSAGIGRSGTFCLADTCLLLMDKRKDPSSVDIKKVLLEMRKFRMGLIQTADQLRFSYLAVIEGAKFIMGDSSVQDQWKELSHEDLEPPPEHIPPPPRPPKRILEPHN
Method: PTP1B (10 μg/mL stock solution) was dissolved in 10 mM citrate buffer (pH 6.0), 1 mM dithiothreitol (DTT), and 1 mM N, N, N′, N′-ethylenediaminetetraacetate (EDTA). 20.0 μL PTP1B stock solution and 60 μL citrate buffer were added to each well of a 96-well plastic plate.

[2] = ABTS radical cation scavenging assay; assay type: biochemical; details: mean ± SD, n = 3
Method: The ABTS radical cation (ABTS·+) was prepared by reacting ABTS with potassium persulfate following the method previously described. The ABTS radical cation (ABTS·+) was prepared by mixing with 2.45 mM potassium persulfate and equal volumes of an ABTS solution (7 mM), and then, they were permitted to react in the darkness at room temperature for 12–16 h. Thereafter, the ABTS reagent was diluted with methyl alcohol until reaching an absorbance of 0.70 ± 0.02 units at 734 nm. In a 96-well microplate, ABTS reagent (190 μL in each well) and samples (10 μL in each well) were incubated at room temperature for 20 min. To determine the antioxidant capacity by the ABTS method, the experimental conditions and protocol were identical to those of the DPPH assay. The only difference was that the absorbance was measured at 734 nm.

[3] = system: LPS-stimulated NO release in RAW 264.7 cells; assay: Nitrite (Griess) assay of LPS-stimulated NO release; assay type: cell-based; details: Mus musculus, RAW264.7, LPS (1 μg/mL)-stimulated RAW 264.7 cells; mean ± SD, n = 3; read-out: IC50 NO production anti-inflammatory effect
Method: The level of NO production was tested by measuring the nitrite level in the culture medium with the Griess method. Cells were seeded at a density of 2 × 10^4 cells per well in 96-well plates. […] A microplate reader was employed for the optical density measurement at 570 nm.

[4] = DPPH free radical scavenging assay; assay type: biochemical; details: mean ± SD, n = 3
Method: The DPPH free radical scavenging assay was performed according to a previously reported method. A series of different concentrations of the tested samples and the positive control ascorbic acid were mixed with freshly prepared DPPH (0.2 mM) in a 96-well microplate with a total volume of 150 μL. After leaving the mixture to react in the dark for 30 min, its absorbance was determined at 517 nm. All of the wells with only samples were set as blanks to obtain an absorbance value, which was subtracted from the test sample readings. The percentage inhibition (%) for each sample was calculated by the following formula: (1) Inhibition %=Absblank−Abssamples/Absblank×100%, where Absblank and Abssamples correspond to the absorbance units (at 517 nm) of DPPH solutions incubated in the absence and presence of the tested samples.

| IC50 [1] [µM] | IC50 (PTP1B) [µM] | IC50 [2] [µM] | IC50 [3] | IC50 [4] [µM] | IC50 (PTP1B; read-out: IC50 PTP1B inhibitory effect, mean ± SD, n = 3) [µM] | IC50 ABTS scavenging activity ([2]; extract and fractions) [µg/mL] | IC50 DPPH scavenging activity ([4]; extract and fractions) [µg/mL] | SMILES |
| --- | --- | --- | --- | --- | --- | --- | --- | --- |
| 22.7 ± 1.07 | 63.19 ± 0.33 | 31.1 ± 0.44 | 79.7 ± 1.17 µM | 62.44 ± 0.42 | – | – | – | COc1cc([C@H]2OC[C@H]3[C@H]2CO[C@@H]3c2cc(OC)c(O[C@@H](CO)[C@@H](O)c3cc(OC)c(O)c(OC)c3)c(OC)c2)cc(OC)c1O [Compound 36, (7S,7′S,7^″S,8R,8′R,8^″R)-4′,4^″-dihydroxy-3,3′,3^″,5,5′,5^″-hexamethoxy-7,9′:7′,9-diepoxy-4,8^″-oxy-8,8′-sesquineolignan-7^″,9^″-diol] |
| – | 63 ± 0.65 | 83.21 ± 0.53 | – | 63.32 ± 0.41 | – | – | – | COC(=O)c1ccc(O)c(O)c1 [Compound 42, protocatechuic acid methyl ester] |
| – | – | – | 8.01 µg/mL and 22.4 µM | – | – | – | – | COc1ccc2c(c1)c(CC(=O)O)c(C)n2C(=O)c1ccc(Cl)cc1 [Indomethacin, reference compound] |
| – | > 100 | > 100 | – | > 100 | – | – | – | COc1cc([C@@H](O)[C@H](CO)Oc2c(OC)cc(CCCO)cc2OC)ccc1O[C@@H]1O[C@H](CO)[C@@H](O)[C@H](O)[C@H]1O [Compound 24, erythro-(7R,8S)-7,9,9-trihydroxy-3,3,5-trimethoxy-8-O-4-neolignan-4-O-β-D-glucopyranoside] |
| > 100 | – | 20.4 ± 0.23 | 14.8 ± 1.2 µM | > 100 | – | – | – | COc1cc([C@@H]2OC(=O)[C@@H]3[C@H]2CO[C@H]3c2ccc(O)c(OC)c2)ccc1O [Compound 28, 4-ketopinoresinol] |
| 73.1 ± 2.33 | 92.39 ± 0.71 | 26.97 ± 0.21 | 83.16 ± 0.24 µM | > 100 | – | – | – | COc1cc([C@@H](O)[C@H](CO)Oc2ccc(CCCO[C@@H]3O[C@H](CO)[C@@H](O)[C@H](O)[C@H]3O)cc2OC)ccc1O [Compound 22, erythro-(7R,8S)-4,7,9,9′-tetrahydroxy-3,3′-dimethoxy-8-O-4′-neolignan-9′-O-β-D-glucopyranoside] |
| 50.9 ± 1.78 | – | 33.4 ± 0.45 | 47.4 ± 0.85 µM | 66.67 ± 0.52 | 62.1 ± 0.73 | – | – | COc1cc([C@@H](O)[C@H](CO)Oc2c(OC)cc([C@@H]3OC[C@@H]4[C@H]3CO[C@H]4c3ccc(O)c(OC)c3)cc2OC)ccc1O (single isomer, unassigned) [Compound 33] |
| – | – | 50.9 ± 1.25 | – | 35.1 ± 1.02 | – | 8.96 ± 0.22 (≈ 50.9 µM) | 6.18 ± 0.18 (≈ 35.1 µM) | O=C1O[C@H]([C@@H](O)CO)C(O)=C1O [Ascorbic acid, reference compound] |
| 56.52 ± 0.45 | – | > 100 | – | > 100 | – | – | – | COc1cc(CCCO)cc(OC)c1OC(CO)CO [Compound 26, 2-[4-(3-hydroxy-propyl)-2,6-dimethoxyphenoxy]-propane-1,3-diol] |
| > 100 | > 100 | > 100 | 36.7 ± 0.8 µM | > 100 | – | – | – | COc1cc(C2Oc3c(OC)cc(CCCO)cc3C2CO)ccc1OC1OC(CO)C(O)C(O)C1O [Compound 16, (7S,8R)-dihydrodehydrodiconiferyl alcohol-4-O-β-D-glucopyranoside] |
| 62.5 ± 1.92 | 39.25 ± 0.14 | 15 ± 0.11 | – | 43.4 ± 0.46 | – | – | – | Oc1ccc([C@H]2Oc3cc(O)cc(O)c3C[C@H]2O)cc1 [Compound 2, (-)-epiafzelechin] |
| > 100 | > 100 | > 100 | 13.2 ± 0.36 µM | > 100 | – | – | – | COc1cc(C2Oc3c(OC)cc(CCCO)cc3C2CO)ccc1OC(CO)CO [Compound 15, (7S,8R)-9,9′-dihydroxyl-3,3′-dimethoxyl-4-O-glycerol-7,8-dihydrobenzofuran-1′-propanolneoligan] |
| 19.7 ± 0.21 | 63.16 ± 0.3 | 31.18 ± 0.24 | 26.2 ± 0.19 µM | 65.9 ± 1.52 | – | – | – | COc1cc([C@@H](O)[C@H](CO)Oc2c(OC)cc([C@@H]3OC[C@@H]4[C@H]3CO[C@H]4c3cc(OC)c(O)c(OC)c3)cc2OC)ccc1O [Compound 35, (7R,7′R,7^″R,8S,8′S,8^″S)-4′,4^″-dihydroxy-3,3′,3^″,5,5′-pentamethoxy-7,9′:7′,9-diepoxy-4,8^″-oxy-8,8′-sesquineolignan-7^″,9^″-diol] |
| 61.8 ± 0.76 | 67 ± 1.2 | 93 ± 0.54 | 55.54 ± 0.41 µM | > 100 | – | – | – | COc1cc(CCCO)ccc1O[C@@H](CO)[C@H](O)c1cc(OC)c(O)c(OC)c1 [Compound 21] |

| SMILES | IC50 [1] [µM] | IC50 (PTP1B) [µM] | IC50 [2] [µM] | IC50 [3] | IC50 [4] [µM] | IC50 (PTP1B; read-out: IC50 PTP1B inhibitory effect, mean ± SD, n = 3) [µM] | IC50 ABTS scavenging activity ([2]; extract and fractions) [µg/mL] | IC50 DPPH scavenging activity ([4]; extract and fractions) [µg/mL] |
| --- | --- | --- | --- | --- | --- | --- | --- | --- |
| COc1cc(-c2cc(=O)c3c(O)cc(O)cc3o2)cc(OC)c1O [Compound 8, tricin] | > 100 | > 100 | 24.1 ± 0.32 | – | 61.25 ± 0.31 | – | – | – |
